From patent US9758494B2, “N-(oxazol-2-yl)-aryl-carboxylic acid amides and use thereof as herbicides” (BAYER CROPSCIENCE AG, priority 2012, dated 2017)

Columns and labels:
Format in all cases: in vivo
Avena fatua [1] = assay: Pre-emergence herbicidal action
Text: (§1) Seeds of monocotyledonous and dicotyledonous weed plants and crop plants are laid out in wood-fiber pots in sandy loam and covered with soil. The compounds according to the invention, formulated in the form of wettable powders (WP) or as emulsion concentrates (EC), are then applied to the surface of the soil cover in the form of an aqueous suspension or emulsion at a water application rate equating to 600 to 800 l/ha, with addition of 0.2% wetting agent. After the treatment, the pots are placed in a greenhouse and kept under good growth conditions for the test plants. The damage to the test plants is assessed visually after a test period of 3 weeks by comparison with untreated controls (herbicidal activity in percent (%): 100% activity=the plants have died, 0% activity=like control plants). Here, for example, compounds No. 1-163, 1-171, 1-172, 1-283, 1-284, 1-294, 1-295, 1-334, 10-001 and 11-343, at an application rate of 320 g/ha, have an activity of at least 80% against Veronica persica.
(§2) In the tables below, the properties of the compounds according to the invention are compared to those of the structurally most similar compounds known from WO 2012/028579 A1. These tests were carried out by the pre- and post-emergence method under the conditions mentioned under item 1 and item 2. Here, the herbicidal activity against various harmful plants and the damage of some important crop plants were compared at different dosages.

[2] = test system: Brassica napus (Oilseed Rape); assay: Post-emergence, damage of crop plants
Description: (§3) Seeds of monocotyledonous and dicotyledonous weed plants and crop plants are laid out in wood fiber pots in sandy loam, covered with soil and cultivated in a greenhouse under good growth conditions. 2 to 3 weeks after sowing, the test plants are treated at the one-leaf stage. The compounds according to the invention, formulated in the form of wettable powders (WP) or as emulsion concentrates (EC), are then sprayed onto the green parts of the plants in the form of an aqueous suspension or emulsion at a water application rate equating to 600 to 800 l/ha, with addition of 0.2% wetting agent. After the test plants have been left to stand in the greenhouse under optimal growth conditions for about 3 weeks, the action of the preparations is assessed visually in comparison to untreated controls (herbicidal action in percent (%): 100% activity=the plants have died, 0% activity=like control plants). Here, for example, compounds No. 1-163, 1-171, 1-172, 1-173, 1-254, 1-283, 1-284, 1-293, 1-294 and 1-334, at an application rate of 80 g/ha, have an activity of at least 80% against Abutilon theophrasti and Amaranthus retroflexus.
as §2

Lolium multiflorum [3] = assay: Pre-emergence herbicidal action; settings: for herbicidal activity, Harmful plant LOLMU: Dosage 320/ha (Table E)
Text: as §1, §2

Polygonum convolvulus = assay: Pre-emergence herbicidal action; settings: for herbicidal activity, Harmful plant POLCO: Dosage 320/ha (Table E)
Text: as §1, §2

Oryza sativa (Rice) [4] = assay: Post-emergence, damage of crop plants
Description: as §3, §2

Cyperus serotinus = assay: Post-emergence herbicidal action; settings: Dosage 80/ha (Table Q)
Description: as §3, §2

Lolium multiflorum [5] = assay: Post-emergence herbicidal action; settings: for herbicidal activity against harmful plants LOMU: Dosage 80/ha (Table P)
Description: as §3, §2

Setaria viridis = assay: Post-emergence herbicidal action
Description: as §3, §2

[6] = test system: Brassica napus (Oilseed Rape); assay: Pre-emergence, damage of crop plants; settings: for damage of crop plants, Crop plant BRSNW: Dosage 320/ha (Table D)
Text: as §1, §2

Oryza sativa (Rice) [7] = assay: Pre-emergence, damage of crop plants; settings: for damage of crop plants, Crop plant ORYZA: Dosage 320/ha (Table E)
Text: as §1, §2

Zea mays (Corn) [8] = assay: Pre-emergence, damage of crop plants; settings: Dosage 320/ha (Table G)
Text: as §1, §2

[9] = test system: Triticum aestivum (Wheat); assay: Post-emergence, damage of crop plants
Description: as §3, §2

Zea mays (Corn) [10] = assay: Post-emergence, damage of crop plants; settings: Dosage 20/ha (Table S)
Description: as §3, §2

Pharbitis purpureum = assay: Post-emergence herbicidal action; settings: Dosage 20/ha (Table S)
Description: as §3, §2

[11] = test system: Triticum aestivum (Wheat); assay: Pre-emergence, damage of crop plants; settings: for damage of crop plants, Crop plant TRZAS: Dosage 320/ha (Table E)
Text: as §1, §2

Abutilon theophrasti = assay: Pre-emergence herbicidal action; settings: Dosage 320/ha (Table C)
Text: as §1, §2

Alopecurus myosuroides [12] = assay: Pre-emergence herbicidal action; settings: Dosage 320/ha (Table D)
Text: as §1, §2

Amaranthus retroflexus = assay: Pre-emergence herbicidal action; settings: Dosage 320/ha (Table C)
Text: as §1, §2

Echinochloa crus galli = assay: Pre-emergence herbicidal action; settings: for herbicidal activity against harmful plants ECHCG: Dosage 320/ha (Table C)
Text: as §1, §2

Matricaria inodora = assay: Pre-emergence herbicidal action
Text: as §1, §2

Alopecurus myosuroides [13] = assay: Post-emergence herbicidal action; settings: Dosage 80/ha (Table P)
Description: as §3, §2

Avena fatua [14] = assay: Post-emergence herbicidal action; settings: Dosage 80/ha (Table P)
Description: as §3, §2

Stellaria media = assay: Post-emergence herbicidal action; settings: Dosage 5/ha (Table T)
Description: as §3, §2

Veronica persica = assay: Post-emergence herbicidal action; settings: Dosage 5/ha (Table T)
Description: as §3, §2

Question: What does the source list for CCS(=O)(=O)c1ccc(C(=O)Nc2nc(C)c(C)o2)c(Cl)c1C1=NOC(CC#N)C1 (centres unmarked) [11-343]?
Answer: Herbicidal activity against AVEFA (Avena fatua [1]; 20 g/ha (Table K)): 80%; Herbicidal activity against AVEFA (Avena fatua [1]; 20 g/ha (Table L)): 80%; Herbicidal activity against AVEFA (Avena fatua [1]; 80 g/ha (Table J)): 80%; Herbicidal activity against AVEFA (Avena fatua [1]; 80 g/ha (Table K)): 80%; Herbicidal activity against AVEFA (Avena fatua [1]; 80 g/ha (Table L)): 80%; Herbicidal activity against AVEFA (Avena fatua [1]; 320 g/ha (Table J)): 100%; Damage of BRSNW ([2]; 5 g/ha (Table W)): 0%; Damage of BRSNW ([2]; 20 g/ha (Table V)): 0%; Damage of BRSNW ([2]; 20 g/ha (Table W)): 0%; Damage of BRSNW ([2]; 20 g/ha (Table X)): 0%; Damage of BRSNW ([2]; 80 g/ha (Table V)): 0%; Damage of BRSNW ([2]; 80 g/ha (Table X)): 0%

Question: Which “herbicidal activity against harmful plants LOLMU” value (Lolium multiflorum [3]; Dosage 320/ha (Table F)) does the source give for C[S+]([O-])c1c(S(C)(=O)=O)ccc(C(=O)Nc2ncco2)c1Cl (centres unmarked) [1-284] here?
Answer: 100%

Question: What about the “herbicidal activity against harmful plants POLCO” value (Polygonum convolvulus; Dosage 320/ha (Table F)) of the same compound?
Answer: 70%

Question: What about the “damage of crop plants, Crop plant ORYZA” value (Oryza sativa (Rice) [4]; Dosage 80/ha (Table Q)) of the same compound?
Answer: 20%

Question: And the “herbicidal activity, Harmful plants CYPES” value (Cyperus serotinus)?
Answer: 60%

Question: What about the “herbicidal activity against harmful plants LOLMU” value (Lolium multiflorum [5]; Dosage 20/ha (Table R)) of the same compound?
Answer: 60%

Question: And the “herbicidal activity, Harmful plants LOLMU” value (Lolium multiflorum [5]; Dosage 80/ha (Table Q))?
Answer: 70%

Question: What about the “herbicidal activity against harmful plants SETVI” value (Setaria viridis; Dosage 20/ha (Table R)) of the same compound?
Answer: 90%

Question: For Cn1nnnc1NC(=O)c1ccc(C(F)(F)F)c([S+](C)[O-])c1Cl (centres unmarked) [WO 2012/028579, No. 4-639], which “damage of crop plants BRSNW” value ([6]; Dosage 320/ha (Table G)) is on record?
Answer: 90%

Question: And the “damage of crop plants ORYZA” value (Oryza sativa (Rice) [7]; Dosage 320/ha (Table G))?
Answer: 90%

Question: What about the “damage of crop plants ZEAMX” value (Zea mays (Corn) [8]) of the same compound?
Answer: 40%

Question: And the “damage of crop plants, Crop plants ORYZA” value (Oryza sativa (Rice) [4]; Dosage 20/ha (Table S))?
Answer: 60%

Question: What about the “damage of crop plants, Crop plants TRZAS” value ([9]; Dosage 20/ha (Table S)) of the same compound?
Answer: 100%

Question: What about the “damage of crop plants, Crop plants ZEAMX” value (Zea mays (Corn) [10]) of the same compound?
Answer: 80%

Question: And the “herbicidal activity, Harmful plant PHBPU” value (Pharbitis purpureum)?
Answer: 40%

Question: For Cc1c(C(=O)Nc2ncco2)ccc(S(C)(=O)=O)c1S(C)(=O)=O [1-163], which “damage of crop plants, Crop plant BRSNW” value [6] is on record?
Answer: 10%

Question: What about the “damage of crop plants, Crop plant ORYZA” value (Oryza sativa (Rice) [7]) of the same compound?
Answer: 0%

Question: And the “damage of crop plants, Crop plant TRZAS” value [11]?
Answer: 0%

Question: What about the “herbicidal activity against harmful plants ABUTH” value (Abutilon theophrasti) of the same compound?
Answer: 100%

Question: What about the “herbicidal activity, Harmful plant ALOMY” value (Alopecurus myosuroides [12]) of the same compound?
Answer: 30%

Question: And the “herbicidal activity against harmful plants AMARE” value (Amaranthus retroflexus)?
Answer: 90%

Question: And the “herbicidal activity against harmful plants ECHCG” value (Echinochloa crus galli)?
Answer: 70%

Question: What about the “herbicidal activity, Harmful plant LOLMU” value (Lolium multiflorum [3]) of the same compound?
Answer: 100%

Question: What about the “herbicidal activity against harmful plants MATIN” value (Matricaria inodora; Dosage 320/ha (Table C)) of the same compound?
Answer: 100%

Question: What about the “herbicidal activity, Harmful plant POLCO” value (Polygonum convolvulus) of the same compound?
Answer: 70%

Question: What about the “damage of crop plants BRSNW” value ([2]; Dosage 20/ha (Table O)) of the same compound?
Answer: 40%

Question: And the “damage of crop plants ORYZA” value (Oryza sativa (Rice) [4]; Dosage 20/ha (Table O))?
Answer: 0%

Question: And the “damage of crop plants TRZAS” value ([9]; Dosage 20/ha (Table O))?
Answer: 20%

Question: What about the “herbicidal activity against harmful plants ALOMY” value (Alopecurus myosuroides [13]) of the same compound?
Answer: 60%

Question: What about the “herbicidal activity against harmful plants AVEFA” value (Avena fatua [14]) of the same compound?
Answer: 40%

Question: What about the “herbicidal activity against harmful plants LOMU” value (Lolium multiflorum [5]) of the same compound?
Answer: 20%

Question: And the “herbicidal activity against harmful plants SETVI” value (Setaria viridis; Dosage 80/ha (Table P))?
Answer: 100%

Question: How did the “damage of crop plants BRSNW” value ([6]; Dosage 80/ha (Table B)) turn out when CCn1nnnc1NC(=O)c1ccc(C(F)(F)F)c(SC)c1C [WO 2012/028579, No. 5-146] was run?
Answer: 90%

Question: And the “damage of crop plants ORYZA” value (Oryza sativa (Rice) [7]; Dosage 80/ha (Table B))?
Answer: 90%

Question: What about the “damage of crop plants TRZAS” value ([11]; Dosage 80/ha (Table B)) of the same compound?
Answer: 30%

Question: And the “damage of crop plants BRSNW” value ([2]; Dosage 80/ha (Table N))?
Answer: 100%

Question: What about the “damage of crop plants ORYZA” value (Oryza sativa (Rice) [4]; Dosage 80/ha (Table N)) of the same compound?
Answer: 80%

Question: What about the “damage of crop plants TRZAS” value ([9]; Dosage 80/ha (Table N)) of the same compound?
Answer: 60%

Question: What does the source list for Cn1ncnc1NC(=O)c1ccc(C(F)(F)F)nc1Cl [WO 2012/028579, No. 8-9]?
Answer: herbicidal activity against harmful plants ECGCG (Echinochloa crus galli; Dosage 80/ha (Table H)): 0%; herbicidal activity against harmful plants MATIN (Matricaria inodora; Dosage 80/ha (Table H)): 60%; herbicidal activity against harmful plants STEME (Stellaria media): 10%; herbicidal activity against harmful plants VERPE (Veronica persica): 60%

Question: Which results are given for Cc1c(C(=O)Nc2nnnn2-c2ccccc2)ccc(S(C)(=O)=O)c1S(C)(=O)=O [WO 2012/028579, No. 6-189]?
Answer: damage of crop plants, Crop plant BRSNW [6]: 90%; damage of crop plants, Crop plant ORYZA (Oryza sativa (Rice) [7]): 80%; damage of crop plants, Crop plant TRZAS [11]: 30%; herbicidal activity, Harmful plant ALOMY (Alopecurus myosuroides [12]): 0%; herbicidal activity, Harmful plant LOLMU (Lolium multiflorum [3]): 70%; herbicidal activity, Harmful plant POLCO (Polygonum convolvulus): 0%; herbicidal activity against harmful plants ALOMY (Alopecurus myosuroides [13]): 0%; herbicidal activity against harmful plants AVEFA (Avena fatua [14]): 0%; herbicidal activity against harmful plants LOMU (Lolium multiflorum [5]): 0%; herbicidal activity against harmful plants SETVI (Setaria viridis; Dosage 80/ha (Table P)): 20%

Question: With Cc1c(C(=O)Nc2nnnn2C)ccc(S(C)(=O)=O)c1S(C)(=O)=O [WO 2012/028579, No. 1-188] as the compound, how does the “herbicidal activity against harmful plants ABUTH” value (Abutilon theophrasti) read?
Answer: 0%

Question: And the “herbicidal activity against harmful plants AMARE” value (Amaranthus retroflexus)?
Answer: 40%

Question: What about the “herbicidal activity against harmful plants ECHCG” value (Echinochloa crus galli) of the same compound?
Answer: 0%

Question: What about the “herbicidal activity against harmful plants MATIN” value (Matricaria inodora; Dosage 320/ha (Table C)) of the same compound?
Answer: 40%

Question: What about the “damage of crop plants BRSNW” value ([2]; Dosage 20/ha (Table O)) of the same compound?
Answer: 100%

Question: What about the “damage of crop plants ORYZA” value (Oryza sativa (Rice) [4]; Dosage 20/ha (Table O)) of the same compound?
Answer: 20%

Question: And the “damage of crop plants TRZAS” value ([9]; Dosage 20/ha (Table O))?
Answer: 40%

Question: How did the “Herbicidal activity against AVEFA” value (Avena fatua [1]; 20 g/ha (Table K)) turn out when CCS(=O)(=O)c1ccc(C(=O)Nc2nnnn2C)c(Cl)c1C1=NOC(CC#N)C1 (centres unmarked) [WO 2012/028579, No. 4-268] was run?
Answer: 0%

Question: And the “Herbicidal activity against AVEFA” value (Avena fatua [1]; 80 g/ha (Table K))?
Answer: 0%

Question: What about the “Damage of BRSNW” value ([2]; 5 g/ha (Table W)) of the same compound?
Answer: 80%

Question: What about the “Damage of BRSNW” value ([2]; 20 g/ha (Table W)) of the same compound?
Answer: 100%
